In US8481597B2, “Use of (-) (3-trihalomethylphenoxy) (4-halophenyl) acetic acid derivatives for treatment of insulin resistance, type 2 diabetes, hyperlipidemia and hyperuricemia” (Metabolex, Inc., priority 1999, dated 2013):
“And” between values parts separate entries of the source, which are not always exact repeats. Equal values may be shown once. “Also recorded” adds a separate entry of the source.

Key:
[1] = tested on: C57BL/6J ob/ob mice; test: Glucose and insulin lowering on daily oral administration in diabetic ob/ob mice (Example 9); assay type: in vivo
Procedure: The gavage volume was 10 ml/kg.

[2] = Pharmacokinetic study of (±) halofenate and (−) halofenate in SD rats (Example 14); assay type: in vivo; details: single oral (−) halofenate 50 mg/kg, Rats 8, 9, 11 individually, BQL <1.00 μg/mL
Procedure: Male 225-250 g SD rats were purchased from Charles River. […] A catheter was placed in the left carotid artery under sodium pentobarbital (50 mg/kg i.p.) and animals were allowed to recover for 2 days before treatment. […] The gavage volume was 5 ml/kg. Blood samples were collected at 1, 2, 4, 6, 8, 12, 24, 48, 72, 96 and 120 hours post dose. The plasma samples were analyzed for each enantiomeric acid ((−) halofenic acid and (+) halofenic acid) by a chiral specific HPLC assay, since the esters are prodrugs, which are designed to convert to their respective enantiomeric acids in vivo.

[3] = tested on: Zucker diabetic fatty (ZDF) rats; test: Lipid lowering in Zucker Diabetic Fatty rats (Example 11); assay type: in vivo; details: for plasma cholesterol, in words: Experiment I, 13 days, racemate 50 mg/kg/day, enantiomers 25 mg/kg/day; for plasma cholesterol lowering, in words / plasma triglyceride, in words: 37.5 mg/kg/day (High dose), 37.5 mg/kg/day
Procedure: Male Zucker diabetic fatty (ZDF) rats were obtained from GMI Laboratories (Indianapolis, Ind.) at 9 weeks of age. Vehicle or enantiomers of halofenate administered by oral gavage on a daily basis starting at 74 days of age. Initial blood samples were obtained for analysis one day before treatment and at the indicated times in the treatment protocol. Blood was analyzed for plasma triglyceride and cholesterol by standard techniques.

[4] = tested on: oxonic acid induced hyperuricemic rats; test: Plasma uric acid in oxonic acid induced hyperuricemic rats (Example 17); assay type: in vivo, SD rats; details: oral 50 mg/kg for 3 days, 100 mg/kg on the 4th day; blood 6 hours post gavage on day 4
Source text: Male SD rats, weight 275-300 g were purchased from Charles River. […] To establish a hyperuricemic state, animals were put on a diet containing 2.5% (w/w) of oxonic acid (Sigma Chemical Co, St. Louis, Mo., USA) throughout the experiment. Oxonic acid elevates plasma uric acid by inhibiting uricase. Rats were screened for plasma uric acid levels 3 days after they were placed on the diet, and those that had extreme plasma uric acid levels were excluded. Rats were assigned to one of three groups and the mean uric acid levels were equivalent in each group. […] Oxonic acid was delivered in a liquid formulation containing 0.9% (w/v) methylcellulose. The gavage and injection volumes were 5 ml/kg. Blood samples were taken at 6 hours post oral gavage on day 4. Plasma uric acid levels were determined colorimetrically using the Infinity Uric Acid Reagent (Sigma Chemical Co, St. Louis, Mo., USA).

[5] = tested on: Zucker fa/fa rats; test: Oral glucose challenge in Zucker fatty rats (Example 10); assay type: in vivo
Procedure: (§1) Prior to treatment, rats were assigned to 6 groups based on body weight. Each treatment group consisted of 8 rats. […] The gavage volume was 10 ml/kg. All rats received an oral glucose challenge (1.9 g/kg) 5.5 hours after the treatment and 4 hours after withdrawal of the food. Blood samples were taken at 0, 15, 30, 60, 90, 120, and 180 minutes following the glucose challenge for plasma glucose measurement. […] On day 5, rats received the intravenous insulin (0.75 U/kg) 5.5 hours after the last dose and 4 hours after withdrawal of the food. Blood samples were taken at 3, 6, 9, 12, 15 and 18 minutes following the insulin injection for plasma glucose measurement.

[6] = biological target: T1, cyclooxygenase 1 (COX-1) (Homo sapiens, UniProt P23219); test: COX-1 inhibition in human whole blood assay, TXB2 production (Example 19); assay type: cell-based
T1 construct: was conducted using fresh human blood from healthy donors; endogenous in cells; host or cells: heparinized fresh human whole blood, stimulated with calcium ionophore A23187
T1 sequence (P23219 24-599): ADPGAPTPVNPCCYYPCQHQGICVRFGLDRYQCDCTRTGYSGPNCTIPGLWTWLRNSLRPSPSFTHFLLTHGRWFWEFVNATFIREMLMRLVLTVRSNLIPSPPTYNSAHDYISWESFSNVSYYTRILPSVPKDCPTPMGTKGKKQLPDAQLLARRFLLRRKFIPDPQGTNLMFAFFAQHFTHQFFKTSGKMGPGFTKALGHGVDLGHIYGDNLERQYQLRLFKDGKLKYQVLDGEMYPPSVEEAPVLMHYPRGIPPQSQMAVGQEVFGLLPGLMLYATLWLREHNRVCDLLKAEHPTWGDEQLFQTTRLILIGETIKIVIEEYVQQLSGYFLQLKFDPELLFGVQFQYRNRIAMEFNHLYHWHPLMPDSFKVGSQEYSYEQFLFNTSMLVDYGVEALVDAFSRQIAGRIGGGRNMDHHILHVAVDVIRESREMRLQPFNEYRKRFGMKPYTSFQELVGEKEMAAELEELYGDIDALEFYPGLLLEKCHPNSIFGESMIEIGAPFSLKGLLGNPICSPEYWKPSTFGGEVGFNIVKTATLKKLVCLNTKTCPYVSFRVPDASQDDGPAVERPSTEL
Procedure: An assay for cyclooxygenase 1 (COX-1) inhibition by the compounds of the present invention was conducted using fresh human blood from healthy donors. […] The enzyme was activated by the commercially available calcium ionophore A23187.
This bioassay is based on the production of thromboxane B2 (TXB2) after COX-1 activation. When activated, COX-1 generates prostaglandin H2 which is then converted to thromboxane A2 (TXA2) by thromboxane synthase and then finally to thromboxane B2 by non-enzymatic […]. In addition, PGE2 levels were measured to exclude inhibition of thromboxane synthase. This assay allows discrimination between COX-1 and thromboxane synthase inhibition.
TXB2 and PGE2 were measured by commercially available immunoassay kits purchased from Assay Designs, Inc. (Ann Arbor, Mich.). All other chemicals were from Sigma except as noted. […] Immediately before use, all compounds were diluted 1:10 in RPMI-1640 medium (Gibco BRL, 11875-093) to make a 10× concentrated stock solution. The 10×RPMI-1640 stock solutions of the calcium ionophore were prepared in an identical manner. […] COX-1 was then activated by adding 25 microliters of the 10× stock solution of 25 micromolar calcium ionophore. The plates were shaken for 10 minutes at room temperature and then incubated at 37° C. for an additional 30 minutes. After these incubation times, the plates were centrifuged at 2,000 g for 5 minutes. Two microliters of plasma were taken from each reaction for the measurement of TXB2 using an enzyme immunoassay kit from Assay Designs, Inc. The PGE2 level in the same reaction was measured using a PGE2 enzyme immunoassay kit from Assay Designs, Inc.
The results of the assay are presented as the percent inhibition of COX-1 activity.

[7] = tested on: ZDF rats; test: Plasma glucose in ZDF rats, (−) halofenate vs (+) halofenate (Example 13); assay type: in vivo; details: 50 mg/kg oral once a day for 3 days
Procedure: Male 8-9 week old ZDF rats were purchased from Genetic Models, Inc. (Indianapolis, Ind.). […] Rats that had 4-hour fasting plasma glucose levels between 200 and 500 mg/dL were used. […] The gavage volume was 5 ml/kg. Blood samples were taken at 5 hours post dose on day 2 and 3.

[8] = tested on: C57BL/6J ob/ob mice; test: Time course of glucose-lowering after a single oral dose in diabetic ob/ob mice (Example 8); assay type: in vivo; details: single oral dose 250 mg/kg; for time course of glucose-lowering, in words: 250 mg/kg
[9] = tested on: Zucker fa/fa rats; test: Short insulin tolerance test in Zucker fatty rats (Example 10); assay type: in vivo; details: 50 mg/kg/day oral for 5 days
Procedure: as §1

[10] = daily oral, racemate 250 mg/kg/day, enantiomers 125 and 250 mg/kg/day
[11] = Experiment II, listed as (−) enantiomer

SMILES: CC(=O)NCCOC(=O)C(Oc1cccc(C(F)(F)F)c1)c1ccc(Cl)cc1 (single isomer, unassigned; (-)) [(−) halofenate, (−) 2-acetamidoethyl 4-chlorophenyl-(3-trifluoromethylphenoxy)acetate]
- overnight fasting plasma insulin after 5 days treatment, in words ([1]; 125 mg/kg/day oral, ob/ob mice): Significantly lower plasma insulins
- time points after first dose with significantly reduced plasma insulin ([1]; 125 mg/kg/day oral, ob/ob mice): 27 h
- overnight fasting plasma insulin after 5 days treatment, in words ([1]; 250 mg/kg/day oral, ob/ob mice): Significantly lower plasma insulins
- time points after first dose with significantly reduced plasma glucose ([1]; 250 mg/kg/day oral, ob/ob mice): 3 h
- time points after first dose with significantly reduced plasma insulin ([1]; 250 mg/kg/day oral, ob/ob mice): 27 h and 30 h
- plasma glucose following an overnight fast after 5 days treatment ([1]; 250 mg/kg/day oral, ob/ob mice, control 185.4±12.3): 127.3 ± 8.0 mg/dL
- plasma glucose relative to control animals, in words [1, 10]: Significant decreases in glucose levels
- plasma insulin relative to vehicle control, in words [1, 10]: insulins were lower
- Plasma concentration of (+) halofenic acid ([2]; time 0 hour): BQL
- Plasma concentration of (−) halofenic acid ([2]; time 0 hour): BQL
- Plasma concentration of (+) halofenic acid ([2]; time 1 hour): BQL
- Plasma concentration of (+) halofenic acid ([2]; time 2 hours): BQL
- Plasma concentration of (+) halofenic acid ([2]; time 4 hours): BQL
- Plasma concentration of (+) halofenic acid ([2]; time 6 hours): BQL
- Plasma concentration of (+) halofenic acid ([2]; time 8 hours): BQL
- Plasma concentration of (+) halofenic acid ([2]; time 72 hours): BQL
- Plasma concentration of (+) halofenic acid ([2]; time 96 hours): BQL
- Plasma concentration of (+) halofenic acid ([2]; time 120 hours): BQL
- plasma cholesterol, in words [3]: significant decrease in plasma cholesterol
- plasma cholesterol, in words ([3]; listed as (−) enantiomer): plasma cholesterol declined with treatment; also recorded: most active of the species tested
- days of treatment with significantly lower plasma cholesterol vs control ([3]; Experiment II, 12.5 mg/kg/day (Low dose)): 7 days
- plasma cholesterol lowering, in words ([3]; Experiment II): much greater decline in plasma cholesterol
- plasma triglyceride, in words ([3]; Experiment II, listed as (−) enantiomer of halofenate): greater magnitude
- plasma cholesterol lowering, in words [3, 11]: greatest extent of cholesterol lowering
- plasma triglyceride, in words [3, 11]: lowest triglyceride levels of all the treatment groups; also recorded: significant lowering of plasma triglyceride
- plasma uric acid levels, in words [4]: significantly reduced plasma uric acid levels
- incremental glucose area under the curve (AUC) relative to vehicle control, in words ([5]; racemate 100 mg/kg, enantiomers 50 and 100 mg/kg): significant reductions in the glucose area; also recorded: Significant changes (p<0.05)
- plasma glucose after oral glucose challenge, in words ([5]; single oral dose 100 mg/kg 5.5 hours before challenge): greatest degree of glucose-lowering of all the treated animals
- plasma glucose after oral glucose challenge, in words ([5]; single oral dose 5.5 hours before challenge, racemate 100 mg/kg, enantiomers 50 and 100 mg/kg): most effective in lowering the glucose; also recorded: lower glucose levels that persisted at 90-120 minutes
- IC50 ([6]; heparinized fresh human blood, calcium ionophore A23187, TXB2 readout, read-out: IC50, inhibition of the COX-1 enzyme in blood): > 3 mM
- inhibition of COX-1, in words ([6]; human whole blood assay): substantially weaker and ineffective inhibitor of the COX-1 enzyme; also recorded: much less effective than the racemate in inhibiting COX-1
- plasma glucose concentrations compared to vehicle-treated animals, in words [7]: significantly reduced plasma glucose concentrations
- earliest time of plasma glucose reduction / significant activity [8]: 1.5 h
- time of peak glucose-lowering activity [8]: 3 h
- time course of glucose-lowering, in words [8]: more rapid onset and sustained longer
- time course of glucose-lowering, in words ([8]; listed as (−) enantiomer): most rapid onset of action and the longest duration of action; also recorded: more effective and significantly different (p<0.05) from the (+) enantiomer at both the 3 hour and 24 hour time points
- plasma glucose at 24 hours ([8]; vehicle 408±16.2): 217 ± 16.4 mg/dL
- insulin sensitivity (slope of decline in glucose after i.v. insulin), in words [9]: improved significantly; also recorded: significantly more insulin sensitive
